Laboratory results from patent US9580463B2 (BRISTOL-MYERS SQUIBB COMPANY, priority 2013, dated 2017).
Like-named read-outs stand apart in the source and are kept apart here.

Columns and labels:
[1] = tested on: HCV genotype 1b (Con1) replicon in HUH-7 cells; assay: HCV replicon luciferase reporter assay, genotype 1b; assay type: cell-based; conditions: Hepatitis C virus, 72 h, genotype 1b replicon, 3 days incubation
How it was run: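 Twenty-point, threefold compound titrations (0.5% DMSO) were incubated 3 days at 37 °C with 3.0×10^3 HUH-7 cells/well in 4% FCS. The cells stably carried luciferase replicons: genotype 1b Con1 (S1179I) or 1a H77 (NS3 P1496L, NS5A S2204I). Renilla signal was read after 2 h with 7.5 μM EnduRen, and EC50 was taken from a four-parameter logistic fit. Cytotoxicity (CC50) was measured by Cell Titer-Blue, 8 h.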

[2] = tested on: HCV genotype 1a (H77 strain) replicon in HUH-7 cells; assay: HCV replicon luciferase reporter assay, genotype 1a; assay type: cell-based; conditions: Hepatitis C virus, 72 h, genotype 1a replicon, 3 days incubation
Text: An HCV replicon whole cell system was established as described by Lohmann V, Korner F, Koch J, Herian U, Theilmann L, Bartenschlager R., Science 285(5424):110-3 (1999) and modified to introduce a luciferase reporter, as first described by Krieger et al (Krieger N, Lohmann V, and Bartenschlager R, J. Virol. 75(10):4614-4624 (2001)). CDNA encoding a humanized form of the Renilla luciferase gene and a linker sequence fused directly to the 3′-end of the luciferase gene were introduced into the replicon construct using an Asc1 restriction site located in core, directly upstream of the neomycin marker gene. The adaptive mutation at position 1179 (serine to isoleucine) was also introduced (Blight K J, Kolykhalov, A A, Rice, C M, Science 290(5498):1972-1974). A stable cell line constitutively expressing this HCV replicon construct was generated by first linearizing plasmid DNAs with ScaI. RNA transcripts were synthesized in vitro using the T7 MegaScript transcription kit (Ambion, Austin, Tex.) according to manufacturer's directions. In vitro transcripts of the cDNA were transfected into the human hepatoma cell line, HUH-7. […] Resulting cell lines were characterized for positive and negative strand RNA production and protein production over time.
A stable HCV replicon luciferase reporter cell line representing the genotype 1a H77 strain (Yanagi M, Purcell R H, Emerson S U, et al. Transcripts from a single full-length cDNA clone of hepatitis C virus are infectious when directly transfected into the liver of a chimpanzee. Proc Natl Acad Sci USA 1997; 94(16):8738-8743) was generated as described previously for the genotype 1b (Con1) replicon luciferase cell line. The replicon construct was modified by introducing mutations were introduced into the genes encoding the NS3 helicase domain (proline replaced by leucine at position 1496) and NS5A (serine to isoleucine at position 2204) to improve replication in cell culture.
HCV replicon luciferase assays were developed to monitor the inhibitory effects of compounds described in the disclosure on HCV genotypes 1a and 1b viral replication. HUH-7 cells, constitutively expressing the HCV replicon, were grown in Dulbecco's Modified Eagle Media (DMEM) (Gibco-BRL) containing 10% Fetal calf serum (FCS) (Sigma) and 1 mg/mL G418 (Gibco-BRL). Compounds were serially diluted 3 folds in DMSO for a twenty-point titration and subsequently transferred to sterile 384-well tissue-culture treated plates (Corning cat #3571). The plates were then seeded with 50 μL of cells at a density of 3.0×10^3 cells/well in DMEM containing 4% FCS (final DMSO concentration at 0.5%). After 3 days incubation at 37° C., cells were analyzed for Renilla Luciferase activity using the EnduRen as substrate (Promega cat #E6485). The EnduRen substrate was diluted in DMEM and then added to the plates to a final concentration of 7.5 μM. The plates were incubated for 2 hrs at 37° C. and then read immediately for 30 seconds with Viewlux Imager (PerkinElmer) using a luminescence program. To assess cytotoxicity of compounds, CC50 values were generated by multiplexing the EnduRen-containing plates with Cell Titer-Blue (Promega, cat # G8082). Cell-Titer Blue (3 μL) was added to each well and incubated for 8 hrs at 37° C. The fluorescence signal from each well was read, with an excitation wavelength at 525/10 nm and an emission wavelength of 598/10 nm, using the Viewlux Imager.
The EC50 values for compounds were calculated by using a four-parameter logistic equation: y=A+((B−A)/(1+((C/x)^D))), where A and B denotes minimal and maximal % inhibition, respectively, C is the EC50, D is the hill slope and x represents compound concentration.

Structure (SMILES)	EC50 ([1]; read-out: LE_1b (EC50, range))	EC50 ([2]; read-out: LE_1a (EC50, range))	EC50 ([1]; read-out: LE_1b (EC50))	EC50 ([2]; read-out: LE_1a (EC50))
COC[C@@H]1C[C@H](C)CC/C=C\[C@@H]2C[C@@]2(C(=O)NS(=O)(=O)C2CC2)NC(=O)[C@@H]2C[C@@H](Oc3nccc4cc(OC)ccc34)CN2C(=O)[C@H]1NC(=O)OC(C)(C)C [Compound 1009, tert-butyl ((2R,6S,7R,9R,13aS,14aR,16aS,Z)-14a-((cyclopropylsulfonyl)carbamoyl)-2-((6-methoxyisoquinolin-1-yl)oxy)-7-(methoxymethyl)-9-methyl-5,16-dioxo-1,2,3,5,6,7,8,9,10,11,13a,14,14a,15,16,16a-hexadecahydrocyclopropa[e]pyrrolo[1,2-a][1,4]diazacyclopentadecin-6-yl)carbamate]	1.01 to 5 nM	1.01 to 5 nM	–	–
COC[C@@H]1C[C@H](C)CC/C=C\[C@@H]2C[C@@]2(C(=O)NS(=O)(=O)C2(C)CC2)NC(=O)[C@@H]2C[C@@H](Oc3nccc4cc(OC)ccc34)CN2C(=O)[C@H]1NC(=O)OC(C)(C)C(F)(F)F [Compound 1014, 1,1,1-trifluoro-2-methylpropan-2-yl ((2R,6S,7R,9R,13aS,14aR,16aS,Z)-2-((6-methoxyisoquinolin-1-yl)oxy)-7-(methoxymethyl)-9-methyl-14a-(((1-methylcyclopropyl)sulfonyl)carbamoyl)-5,16-dioxo-1,2,3,5,6,7,8,9,10,11,13a,14,14a,15,16,16a-hexadecahydrocyclopropa[e]pyrrolo[1,2-a][1,4]diazacyclopentadecin-6-yl)carbamate]	0.51 to 1 nM	1.01 to 5 nM	–	–
COC[C@@H]1C[C@@H](C)CC/C=C\[C@@H]2C[C@@]2(C(=O)NS(=O)(=O)C2(CF)CC2)NC(=O)[C@@H]2C[C@@H](Oc3nc4cc(OC)ccc4nc3C(C)C)CN2C(=O)[C@H]1NC(=O)OC(C)(C)C [Compound 1024, tert-butyl ((2R,6S,7R,9S,13aS,14aR,16aS,Z)-14a-(((1-(fluoromethyl)cyclopropyl)sulfonyl)carbamoyl)-2-((3-isopropyl-7-methoxyquinoxalin-2-yl)oxy)-7-(methoxymethyl)-9-methyl-5,16-dioxo-1,2,3,5,6,7,8,9,10,11,13a,14,14a,15,16,16a-hexadecahydrocyclopropa[e]pyrrolo[1,2-a][1,4]diazacyclopentadecin-6-yl)carbamate]	5.01 to 35 nM	35 to 620 nM	–	–
COC[C@@H]1CCCC/C=C\[C@@H]2C[C@@]2(C(=O)NS(=O)(=O)C2(C)CC2)NC(=O)[C@@H]2C[C@@H](Oc3ncc(OC)c4ccccc34)CN2C(=O)[C@H]1NC(=O)OC(C)(C)C(F)(F)F [Compound 1002, 1,1,1-trifluoro-2-methylpropan-2-yl ((2R,6S,7R,13aS,14aR,16aS,Z)-2-((4-methoxyisoquinolin-1-yl)oxy)-7-(methoxymethyl)-14a-(((1-methylcyclopropyl)sulfonyl)carbamoyl)-5,16-dioxo-1,2,3,5,6,7,8,9,10,11,13a,14,14a,15,16,16a-hexadecahydrocyclopropa[e]pyrrolo[1,2-a][1,4]diazacyclopentadecin-6-yl)carbamate]	0.1 to 0.5 nM	0.51 to 1 nM	–	–
COC[C@@H]1C[C@H](C)CC/C=C\[C@@H]2C[C@@]2(C(=O)NS(=O)(=O)C2CC2)NC(=O)[C@@H]2C[C@@H](Oc3nc4cc(OC)ccc4nc3C(F)(F)F)CN2C(=O)[C@H]1NC(=O)OC(C)(C)C(F)(F)F [Compound 1041, 1,1,1-trifluoro-2-methylpropan-2-yl ((2R,6S,7R,9R,13aS,14aR,16aS,Z)-14a-((cyclopropylsulfonyl)carbamoyl)-2-((7-methoxy-3-(trifluoromethyl)quinoxalin-2-yl)oxy)-7-(methoxymethyl)-9-methyl-5,16-dioxo-1,2,3,5,6,7,8,9,10,11,13a,14,14a,15,16,16a-hexadecahydrocyclopropa[e]pyrrolo[1,2-a][1,4]diazacyclopentadecin-6-yl)carbamate]	0.51 to 1 nM	0.51 to 1 nM	0.75 nM	0.61 nM
COC[C@@H]1CCCC/C=C\[C@@H]2C[C@@]2(C(=O)NS(=O)(=O)C2CC2)NC(=O)[C@@H]2C[C@@H](Oc3nc4cc(OC)ccc4nc3C(F)(F)F)CN2C(=O)[C@H]1NC(=O)OC(C)(C)C(F)(F)F [Compound 1021, 1,1,1-trifluoro-2-methylpropan-2-yl ((2R,6S,7R,13aS,14aR,16aS,Z)-14a-((cyclopropylsulfonyl)carbamoyl)-2-((7-methoxy-3-(trifluoromethyl)quinoxalin-2-yl)oxy)-7-(methoxymethyl)-5,16-dioxo-1,2,3,5,6,7,8,9,10,11,13a,14,14a,15,16,16a-hexadecahydrocyclopropa[e]pyrrolo[1,2-a][1,4]diazacyclopentadecin-6-yl)carbamate]	0.1 to 0.5 nM	1.01 to 5 nM	–	–
COC[C@@H]1C[C@H](C)CC/C=C\[C@@H]2C[C@@]2(C(=O)NS(=O)(=O)C2(C)CC2)NC(=O)[C@@H]2C[C@@H](Oc3nc4cc(OC)ccc4nc3C(F)(F)F)CN2C(=O)[C@H]1NC(=O)OC(C)(C)C(F)(F)F [Compound 1032, 1,1,1-trifluoro-2-methylpropan-2-yl ((2R,6S,7R,9R,13aS,14aR,16aS,Z)-2-((7-methoxy-3-(trifluoromethyl)quinoxalin-2-yl)oxy)-7-(methoxymethyl)-9-methyl-14a-(((1-methylcyclopropyl)sulfonyl)carbamoyl)-5,16-dioxo-1,2,3,5,6,7,8,9,10,11,13a,14,14a,15,16,16a-hexadecahydrocyclopropa[e]pyrrolo[1,2-a][1,4]diazacyclopentadecin-6-yl)carbamate]	0.1 to 0.5 nM	0.51 to 1 nM	–	–
COC[C@@H]1CCCC/C=C\[C@@H]2C[C@@]2(C(=O)NS(=O)(=O)C2CC2)NC(=O)[C@@H]2C[C@@H](Oc3nc4cc(OC)ccc4nc3C(F)(F)F)CN2C(=O)[C@H]1NC(=O)OC(C)(C)C [Compound 1020, tert-butyl ((2R,6S,7R,13aS,14aR,16aS,Z)-14a-((cyclopropylsulfonyl)carbamoyl)-2-((7-methoxy-3-(trifluoromethyl)quinoxalin-2-yl)oxy)-7-(methoxymethyl)-5,16-dioxo-1,2,3,5,6,7,8,9,10,11,13a,14,14a,15,16,16a-hexadecahydrocyclopropa[e]pyrrolo[1,2-a][1,4]diazacyclopentadecin-6-yl)carbamate]	0.51 to 1 nM	1.01 to 5 nM	–	–
COC[C@@H]1C[C@@H](C)CC/C=C\[C@@H]2C[C@@]2(C(=O)NS(=O)(=O)C2(C)CC2)NC(=O)[C@@H]2C[C@@H](Oc3nccc4cc(OC)ccc34)CN2C(=O)[C@H]1NC(=O)OC(C)(C)C [Compound 1006, tert-butyl ((2R,6S,7R,9S,13aS,14aR,16aS,Z)-2-((6-methoxyisoquinolin-1-yl)oxy)-7-(methoxymethyl)-9-methyl-14a-(((1-methylcyclopropyl)sulfonyl)carbamoyl)-5,16-dioxo-1,2,3,5,6,7,8,9,10,11,13a,14,14a,15,16,16a-hexadecahydrocyclopropa[e]pyrrolo[1,2-a][1,4]diazacyclopentadecin-6-yl)carbamate]	1.01 to 5 nM	5.01 to 35 nM	–	–
